Data from paper PMC10394516, “The pharmacokinetic profile of brensocatib and its effect on pharmacodynamic biomarkers including NE, PR3, and CatG in various rodent species” (Frontiers in Pharmacology, 2023).
Where two headings read alike, the source gives them in different places.

Experiments:
[1] = Plasma PK of brensocatib, BID vs QD oral dosing, C57BL/6 mice; type: in vivo; conditions: both sexes; for AUC(0-t): first 24 h
Protocol: A dose frequency study was performed in male and female mice (C57BL/6 & BALB/c) and in male and female rats (Sprague Dawley & Wistar) investigating twice daily (BID) versus once daily (QD) brensocatib administration.
Briefly, animals were weighed and randomized into different treatment groups. In total, three different dosing levels of brensocatib were tested in each species and strain; each QD dosing level was equivalent to 1.5-times the matching daily BID dose. For BID dosing, the second daily dose was administered 8-h post the morning dose. C57BL/6 mice were dosed either BID or QD for 7 consecutive days at 0/0, 0.5/0.75, 2/3, and 20/30 mg/kg/day (BID/QD). BALB/c mice were dosed for 7 consecutive days at 0/0, 0.2/0.3, 2/3, and 20/30 mg/kg/day (BID/QD). SD rats were dosed for 9 consecutive days at 0/0, 0.2/0.3, 2/3, and 20/30 mg/kg/day (BID/QD). Wistar rats were dosed for 7 consecutive days at 0/0, 0.2/0.3, 2/3, and 20/30 mg/kg/day (BID/QD).
For sparse PK analysis via LC-MS/MS, plasma was collected from animals during the first 24 h of dosing at prescribed timepoints. The timepoints included 1, 3, 8, and 24 h post initial dose for QD groups, and 1, 3, 8, 9, 11, and 24 h post initial dose for BID groups. Note that the 8- and 24-h plasma samples were prior to the afternoon dose for BID groups and prior to the second day dose for all groups, respectively. See section Quantification of Plasma Brensocatib Concentrations for details.
Blood was collected via the tail-vein technique and centrifuged to separate and collect the plasma. The resulting plasma samples were stored at −20°C or lower until LC-MS/MS analysis.
The plasma concentration of brensocatib was quantified by liquid chromatography, tandem mass spectrometry (LC-MS/MS), a Sciex API6500 mass spectrometer (SCIEX, Framingham, MA). Two brensocatib stock solutions were prepared, one for the preparation of the 8-point standard (STD) curve spiking solutions and the other for the preparation of the quantitative control spiking solutions (QCs) at three levels. The STD curve and QCs were prepared by 2% spiking from the spiking solutions into mouse or rat plasma. The samples were extracted using a protein precipitation method, where 10 µL of sample was mixed with 100 µL of internal standard working solution (100 ng/mL ^6C13-brensocatib in methanol), vortexed for 5 s, and centrifuged at 21,130 × g at 4°C for 15 min. The supernatant was mixed with an equal volume of water and 10 μL was injected into a Phenomenex Kinetex Biphenyl column (3.0 mm × 50 mm; 2.6 μm; 65°C; 0.8 mL/min) with an elution gradient consisting of mobile phase A (10 mM ammonium formate) and mobile phase B (methanol) over 2 min from 5% to 95% B. The mass spectrometer was equipped with an atmospheric-pressure chemical ionization source operating in positive mode.
Individual plasma concentrations were plotted and the area under the curve (AUC) was calculated using the trapezoid method. The elimination rate constant (k e ) was calculated as the negative natural log of the plasma concentration over time (Eq. 1) starting at the max concentration (C max) after the most recent dose to the last measurable plasma concentration between doses. The calculated k e was used to define the half-life (t 1/2 ) based on Eq. 2; where 0.693 is the natural log of 2 and assumes a first-order reaction. ke=−ln∆C/∆t (1) t1/2=0.693/ke (2)

[2] = test system: NE; parameters: method as in Chalmers et al., 2020; conditions: Phase 2 trial in NCFBE (WILLOW, NCT03218917), vs placebo; ref Chalmers et al., 2020; cited from earlier work

half-life ([1]; C57BL/6, BALB/c, mouse, oral, mice (both strains), across BID and QD regimens, sparse PK, read-out: half-life (overall) (converted)): ~2.5 h
half-life ([1]; C57BL/6, mouse, po, 0.5 mg/kg/day, C57BL/6 mice, oral BID, 0.5 mg/kg/day, evening dose, read-out: t1/2, PM dose (converted)): 0.63 ± 0.01 h
half-life ([1]; C57BL/6, mouse, po, 0.5 mg/kg/day, C57BL/6 mice, oral BID, 0.5 mg/kg/day, morning dose, read-out: t1/2, AM dose (converted)): 0.71 ± 0.23 h
half-life ([1]; C57BL/6, mouse, po, 0.75 mg/kg/day, C57BL/6 mice, oral QD, 0.75 mg/kg/day, read-out: t1/2, AM dose (converted)): 9.62 ± 0.95 h
half-life ([1]; C57BL/6, mouse, po, 2 mg/kg/day, C57BL/6 mice, oral BID, 2 mg/kg/day, evening dose, read-out: t1/2, PM dose (converted)): 2.35 ± 0.35 h
half-life ([1]; C57BL/6, mouse, po, 2 mg/kg/day, C57BL/6 mice, oral BID, 2 mg/kg/day, morning dose, read-out: t1/2, AM dose (converted)): 2.07 ± 0.42 h
half-life ([1]; C57BL/6, mouse, po, 3 mg/kg/day, C57BL/6 mice, oral QD, 3 mg/kg/day, read-out: t1/2, AM dose (converted)): 6.38 ± 0.56 h
half-life ([1]; C57BL/6, mouse, po, 20 mg/kg/day, C57BL/6 mice, oral BID, 20 mg/kg/day, evening dose, read-out: t1/2, PM dose (converted)): 2.36 ± 0.05 h
half-life ([1]; C57BL/6, mouse, po, 20 mg/kg/day, C57BL/6 mice, oral BID, 20 mg/kg/day, morning dose, read-out: t1/2, AM dose (converted)): 2.41 ± 0.42 h
half-life ([1]; C57BL/6, mouse, po, 30 mg/kg/day, C57BL/6 mice, oral QD, 30 mg/kg/day, read-out: t1/2, AM dose (converted)): 3.01 ± 0.18 h
AUC(0-t) ([1]; mouse, C57BL/6 mice, oral BID, 0.5 mg/kg/day, read-out: AUC0–24h): 294 ± 49 ng·h/mL
AUC(0-t) ([1]; mouse, C57BL/6 mice, oral BID, 0.5 mg/kg/day, read-out: AUC(0–24)): 0.7 ± 0.12 µM·h
AUC(0-t) ([1]; mouse, C57BL/6 mice, oral BID, 2 mg/kg/day, read-out: AUC0–24h): 2010 ± 154 ng·h/mL
AUC(0-t) ([1]; mouse, C57BL/6 mice, oral BID, 2 mg/kg/day, read-out: AUC(0–24)): 4.79 ± 0.37 µM·h
AUC(0-t) ([1]; mouse, C57BL/6 mice, oral BID, 20 mg/kg/day, read-out: AUC0–24h): 15900 ng·h/mL
AUC(0-t) ([1]; mouse, C57BL/6 mice, oral BID, 20 mg/kg/day, read-out: AUC(0–24)): 37.7 ± 8.33 µM·h
AUC(0-t) ([1]; mouse, C57BL/6 mice, oral QD, 0.75 mg/kg/day, read-out: AUC0–24h): 735 ± 108 ng·h/mL
AUC(0-t) ([1]; mouse, C57BL/6 mice, oral QD, 0.75 mg/kg/day, read-out: AUC(0–24)): 1.75 ± 0.26 µM·h
AUC(0-t) ([1]; mouse, C57BL/6 mice, oral QD, 3 mg/kg/day, read-out: AUC0–24h): 2840 ± 302 ng·h/mL
AUC(0-t) ([1]; mouse, C57BL/6 mice, oral QD, 3 mg/kg/day, read-out: AUC(0–24)): 6.76 ± 0.72 µM·h
AUC(0-t) ([1]; mouse, C57BL/6 mice, oral QD, 30 mg/kg/day, read-out: AUC0–24h): 52600 ng·h/mL
AUC(0-t) ([1]; mouse, C57BL/6 mice, oral QD, 30 mg/kg/day, read-out: AUC(0–24)): 125 ± 16 µM·h
SMILES: Cn1c(=O)oc2ccc(-c3ccc(C[C@@H](C#N)NC(=O)[C@@H]4CNCCCO4)cc3)cc21 [brensocatib]
sputum NE activity [2]: dose-dependent reduction
